Results reported in paper PMC8117066 (Behavioural brain research, 2021).

How the values were obtained:
[1] = molecular target: Dopamine transporter (DAT) (Mus musculus, UniProt Q61327, T53A); test: inhibition of [3H]DA uptake in mouse striatal synaptosomes; assay type: biochemical
[2] = molecular target: Dopamine transporter (DAT) (Mus musculus, UniProt Q61327); test: as above; assay type: biochemical
[3] = substrate: NCCc1ccc(O)c(O)c1; test: [3H]DA uptake kinetics; assay type: biochemical, Mus musculus

Molecule	IC50 [1]	IC50 [2]	Km [3]
CC(N)Cc1ccccc1 (centres unmarked) [amphetamine]	198 ± 68 nM	183 ± 23 nM	–
COC(=O)[C@H]1[C@@H](OC(=O)c2ccccc2)C[C@@H]2CC[C@H]1N2C [cocaine]	1270 ± 348 nM	268 ± 58 nM	–
CN[C@@H](C)Cc1ccccc1 [METH]	262 ± 25 nM	280 ± 40 nM	–
Dopamine transporter (DAT) (Mus musculus) (protein) MSKSKCSVGPMSSVVAPAKEPNAVGPREVELILVKEQNGVQLTNSTLINPPQTPVEVQERETWSKKIDFLLSVIGFAVDLANVWRFPYLCYKNGGGAFLVPYLLFMVIAGMPLFYMELALGQFNREGAAGVWKICPVLKGVGFTVILISFYVGFFYNVIIAWALHYFFSSFTMDLPWIHCNNTWNSPNCSDAHSSNSSDGLGLNDTFGTTPAAEYFERGVLHLHQSRGIDDLGPPRWQLTACLVLVIVLLYFSLWKGVKTSGKVVWITATMPYVVLTALLLRGVTLPGAMDGIRAYLSVDFYRLCEASVWIDAATQVCFSLGVGFGVLIAFSSYNKFTNNCYRDAIITTSINSLTSFSSGFVVFSFLGYMAQKHNVPIRDVATDGPGLIFIIYPEAIATLPLSSAWAAVFFLMLLTLGIDSAMGGMESVITGLVDEFQLLHRHRELFTLGIVLATFLLSLFCVTNGGIYVFTLLDHFAAGTSILFGVLIEAIGVAWFYGVQQFSDDIKQMTGQRPNLYWRLCWKLVSPCFLLYVVVVSIVTFRPPHYGAYIFPDWANALGWIIATSSMAMVPIYATYKFCSLPGSFREKLAYAITPEKDRQLVDRGEVRQFTLRHWLLV	–	–	0.0778 ± 0.003009 µM
Dopamine transporter (DAT) (Mus musculus; T53A) (protein) MSKSKCSVGPMSSVVAPAKEPNAVGPREVELILVKEQNGVQLTNSTLINPPQAPVEVQERETWSKKIDFLLSVIGFAVDLANVWRFPYLCYKNGGGAFLVPYLLFMVIAGMPLFYMELALGQFNREGAAGVWKICPVLKGVGFTVILISFYVGFFYNVIIAWALHYFFSSFTMDLPWIHCNNTWNSPNCSDAHSSNSSDGLGLNDTFGTTPAAEYFERGVLHLHQSRGIDDLGPPRWQLTACLVLVIVLLYFSLWKGVKTSGKVVWITATMPYVVLTALLLRGVTLPGAMDGIRAYLSVDFYRLCEASVWIDAATQVCFSLGVGFGVLIAFSSYNKFTNNCYRDAIITTSINSLTSFSSGFVVFSFLGYMAQKHNVPIRDVATDGPGLIFIIYPEAIATLPLSSAWAAVFFLMLLTLGIDSAMGGMESVITGLVDEFQLLHRHRELFTLGIVLATFLLSLFCVTNGGIYVFTLLDHFAAGTSILFGVLIEAIGVAWFYGVQQFSDDIKQMTGQRPNLYWRLCWKLVSPCFLLYVVVVSIVTFRPPHYGAYIFPDWANALGWIIATSSMAMVPIYATYKFCSLPGSFREKLAYAITPEKDRQLVDRGEVRQFTLRHWLLV	–	–	0.07117 ± 0.006766 µM
